Test results: patent publication US12286632B2, “Rationally-designed synthetic peptide shuttle agents for delivering polypeptide cargos from an extracellular space to the cytosol and/or nucleus of a target eukaryotic cell, uses thereof, methods and kits relating to same” (Feldan Bio Inc., priority 2016, dated 2025)
Ends that are not written are not given here.

Assays:
[1] = system: THP-1 cells; test: HOXB4-WT transduction: target gene mRNA by real-time PCR (Fold over control) and total RNA (ng/μL) as marker for cell viability; assay type: cell-based, human; conditions: THP-1 cells; for Total RNA in ng/μL (mean ± St. Dev): peptide alone 1 μM, HOXB4-WT 0 μM, marker for cell viability
Description: Control and treated cells are transferred to separate sterile 1.5-mL tubes and centrifuged for 5 minutes at 300g. The cell pellets are resuspended in appropriate buffer to lyse the cells. RNAase-free 70% ethanol is then added followed by mixing by pipetting. The lysates are transferred to an RNeasy™ Mini spin column and centrifuged 30 seconds at 13000 RPM. After several washes with appropriate buffers and centrifugation steps, the eluates are collected in sterile 1.5-mL tubes on ice, and the RNA quantity in each tube is then quantified with a spectrophotometer. For DNase treatment, 2 μg of RNA is diluted in 15 μL of RNase-free water. 1.75 μL of 10X DNase buffer and 0.75 μL of DNase is then added, followed by incubation at 37° C. for 15 minutes. For reverse transcriptase treatment, 0.88 μL of EDTA […] is added, followed by incubation at 75° C. for 5 minutes. In a PCR tube, […] of DNase-treated RNA is mixed with 4 μL of iScript™ Reverse transcription Supermix (5X) and […] of nuclease-free water. The mix is incubated in a PCR machine with the following program: 5 min at 25° C., 30 min at 42° C. and 5 min at 85° C. Newly synthesized cDNA is transferred in sterile 1.5-mL tubes and diluted in 2 μL of nuclease-free water. 18 μL per well of a qPCR machine (CFX-96™) mix is then added in a PCR plate for analysis.
Briefly, THP-1 cells were plated at 30 000 cells/well one day before transduction. HOXB4-WT recombinant protein ([…]; Example 14.1) was co-incubated with different concentrations of His-CM18-PTD4 ([…]) and then exposed to THP-1 cells for 2.5 hours in the presence of serum. The cells were subjected to real time-PCR analysis as described in Example 14.2 to measure the mRNA levels of a target gene as a marker for HOXB4 activity, which was then normalized to the target gene mRNA levels detected in the negative control cells (no treatment), to obtain a “Fold over control” value. Total RNA levels (ng/μL) were also measured as a marker for cell viability.
Briefly, THP-1 cells were plated at 30 000 cells/well one day before the first time course experiment. HOXB4-WT recombinant protein (1.5 μM; Example 14.1) was co-incubated with His-CM18-PTD4 (0.8 μM) and then exposed to THP-1 cells for 0, 2.5, 4, 24 or 48 hours in presence of serum. The cells were subjected to real time-PCR analysis as described in Example 14.2 to measure mRNA levels of a target gene as a marker for HOXB4 activity, which was then normalized to the target gene mRNA levels detected in the negative control cells (no treatment), to obtain a “Fold over control” value. Total RNA levels (ng/μL) were also measured as a marker for cell viability.
Briefly, THP-1 cells were plated at 30 000 cells/well one day before the first time course experiment. HOXB4-WT recombinant protein (0.3 μM; Example 14.1) was co-incubated with His-CM18-PTD4 (0.8 μM) and then exposed to THP-1 cells for 0, 0.5, 1, 2, 2.5, 3 or 4 hours in presence of serum. The cells were subjected to real time-PCR analysis as described in Example 14.2 to measure mRNA levels of a target gene as a marker for HOXB4 activity, which was then normalized to target gene mRNA levels detected in the negative control cells (no treatment), to obtain a “Fold over control” value. Total RNA levels (ng/μL) were also measured as a marker for cell viability.
Briefly, THP-1 cells were plated at 30 000 cells/well one day before the first time course experiment. HOXB4-WT recombinant protein (1.5 μM; Example 14.1) co-incubated with the shuttle agents His-CM18-PTD4, TAT-KALA, EB1-PTD4, His-C(LLKK)3C-PTD4 and His-CM18-PTD4-His at 0.8 μM, and then exposed to THP-1 cells for 2.5 hours in presence of serum. The cells were subjected to real time-PCR analysis as described in Example 14.2 to measure mRNA levels of a target gene as a marker for HOXB4 activity, which was then normalized to target gene mRNA levels detected in the negative control cells (no treatment), to obtain a “Fold over control” value. […]

[2] = in vitro; conditions: human, HeLa cells; for viability: Cell viability (%) (±St Dev.; n = 3)
[3] = in vitro; conditions: human, HeLa cells
[4] = in vitro; conditions: human, THP-1 cells
[5] = in vitro; conditions: human, HCC-78 cells
[6] = in vitro; conditions: human, NCI-H196 cells
[7] = system: HeLa cells; conditions: human, 10 s, 50 µM
[8] = system: HeLa cells; test: Plasmid DNA (pEGFP-C1) transfection by peptides (% cells with GFP signal, cell viability); conditions: DNA transfection in HeLa cells using peptides; pEGFP-C1 plasmid
[9] = Cell viability (%) (±St. Dev.; n = 3)

Substance: HOXB4-WT alone
- Fold over control (mean ± St. Dev) ([1]; HOXB4-WT alone 1.5 μM, no peptide, target gene mRNA by real time-PCR): 2.5 ± 0.2

Substance: KWKLARAFARAIKKLGGSGGGSYARALRRQARTG [FSD10 alone]
- Total RNA in ng/μL (mean ± St. Dev) [1]: 181 ± 10.7 ng/µL

Substance: KWKLARAFARAIKKLGGSGGGSYARALRRQARTG [FSD10]
- viability [2]: 79.8 ± 4.73%
- viability at 1 min, 8 µM [2, 9]: 83.4 ± 6.38%
- viability at 1 min, 10 µM [2, 9]: 79.8 ± 6.37%
- viability at 2 min, 5 µM [2, 9]: 55.6 ± 4.28%
- viability [3]: 72.4 ± 8.61%
- viability at 0.5 min, 2 µM [4]: 96.3 ± 2.16%
- viability at 1 min, 1 µM [4]: 93.5 ± 5.64%
- viability at 1 min, 2 µM [4]: 85.6 ± 5.22%
- viability at 0.025 h, 1 µM [4]: 78.4 ± 6.15%
- viability at 1 min, 8 µM [5]: 76.1 ± 6.19%
- viability at 1 min, 10 µM [5]: 63.1 ± 5.27%
- viability at 2 min, 5 µM [5]: 83.1 ± 5.99%
- viability at 1 min, 8 µM [6]: 81 ± 8.02%
- viability at 1 min, 10 µM [6]: 85.4 ± 7.66%
- viability at 2 min, 5 µM [6]: 83.2 ± 7.51%

Substance: KWKLARAFARAIKKLYARALRRQARTG [FSD12]
- viability [2]: 67.8 ± 4.83%
- viability [3]: 58.6 ± 2.07%
- viability at 1 min, 8 µM [5]: 66.3 ± 6.03%
- viability at 1 min, 10 µM [5]: 46.5 ± 4.18%
- viability at 2 min, 5 µM [5]: 75.1 ± 6.31%
- viability at 1 min, 8 µM [6]: 71.9 ± 6.44%
- viability at 1 min, 10 µM [6]: 72.5 ± 6.29%
- viability at 2 min, 5 µM [6]: 76.5 ± 6.37%

Substance: LLKLWSRLLKLWTQGGSGGGSGRRLKAKRAKA [FSD18 alone]
- Total RNA in ng/μL (mean ± St. Dev) [1]: 157 ± 3.9 ng/µL

Substance: RRLSYSRRRFWEAKLAKALAKALAKHLAKALAKALKACEA [SynB3-KALA]
- Cell viability (%) (±St. Dev.; n = 3) [7]: 91.1 ± 0.82%

Substance: RRRRRRRRRWEAKLAKALAKALAKHLAKALAKALKACEA [9Arg-KALA]
- Cell viability (%) (±St. Dev.; n = 3) [7]: 62.8 ± 5.11%

Substance: YARAAARQARA [PTD4, reference compound]
- viability [3]: 98.2 ± 0.69%
- Cell viability (%) (±St. Dev.; n = 3) [7]: 94 ± 4.5%

Substance: YGRKKRRQRRRCKKALLALALHHLAHLALHLALALKKA [TAT-LAH4]
- viability [3]: 96.2 ± 2.7%
- Mean % cells with GFP signal (±St. Dev.; n = 3) [8]: 0.15 ± 0.00%
